Source: US20100112030A1, “ROLE OF HEDGEHOG SIGNALING IN ATHEROSCLEROSIS AND CARDIOVASCULAR DISEASE” (The Regents of the University of California, priority 2007, published 2010)

How the values were obtained:
Assay type in all cases: cell-based
[1] = system: pluripotent mesenchymal cells derived from the bone marrow; test: Oxysterol-induced osteoblastic differentiation of pluripotent mesenchymal cells; settings: hedgehog pathway inhibitor added to oxysterol-treated cells
From the text: These mesenchymal cells, which serve as osteoprogenitors during skeletal development and bone remodeling, are induced to undergo osteoblastic differentiation when treated with osteoinductive oxysterols.

[2] = system: Gli1 expression in mouse aortic smooth muscle cells (MASMC); test: Hh target gene (Gli1) expression in MASMC; settings: 48 hours of treatment
Protocol: (§1) Treatment of HASMC with Shh was examined to determine if Shh induces the expression of target genes, Ptch and Gli. […] This difference may be cell-type specific or may be due to heterogeneity in vascular smooth muscle cell populations and their differentiation state. Ptch and Gli1 mRNA expression was induced when using 3 μg/ml of rmShh after 48 hours of treatment (1.6 fold and 1.8 fold, respectively, compared to control vehicle-treated cells as assessed by Q-RT-PCR analysis). This is consistent with studies in which 3.5 μg/ml of Shh was used to activate rat vascular SMC. It is likely that local Shh concentrations may reach very high levels in the microenvironment of the vessel wall, since, as described herein, substantial immunostaining for Shh in atherosclerotic lesions was observed. Cells within the atherosclerotic lesion may also become more susceptible to Shh over time due to the inflammatory insults associated with that environment. […] Dose response and time course experiments can determine the extent and kinetics of Hh target gene expression in aortic SMC, as well as in other vascular cells, using techniques known to a person of ordinary skill.

[3] = system: Ptch and Gli1 expression in human aortic smooth muscle cells (HASMC); test: Hh target gene (Ptch, Gli1) mRNA expression in HASMC by Q-RT-PCR; settings: 48 hours of treatment
Protocol: as §1

Row | SMILES | oxysterol-induced osteoblastic differentiation of cells [1] | increase in Gli1 expression [2] | increase in Gli1 expression [3]
1 | CC1=C2C[C@H]3[C@@H](CC=C4C[C@@H](O)CC[C@@]43C)[C@@H]2CC[C@]12O[C@@H]1C[C@H](C)CN[C@H]1[C@H]2C [cyclopamine] | completely inhibited | – | –
2 | CC(C)CCC[C@](C)(O)[C@H]1CC[C@H]2[C@@H]3CC=C4C[C@@H](O)CC[C@]4(C)[C@H]3CC[C@@]21C [20(S)-hydroxycholesterol] | – | 2 fold | 2 fold
